In publication PMC10212229 (Pharmaceutical Research, 2023):
Entries after “also recorded” stand apart in the source; their conditions may differ.

Experiments:
[1] = Clinical pharmacokinetics of nirmatrelvir in healthy volunteers; assay type: in vivo, human; details: for renal clearance in the presence and absence of ritonavir: with vs without ritonavir
[2] = Paxlovid PBPK model verification, nirmatrelvir predicted vs observed exposure; set-up: species or system human
[3] = In vitro precipitation test of nirmatrelvir SDD formulation; assay type: physicochemical; details: Pfizer data on file
CYP3A4 = details: cited from earlier work
[4] = without ritonavir coadministration; cited from earlier work
MDCK-LE = details: cited from earlier work
Caco-2 = details: cited from earlier work
[5] = Simcyp ritonavir first-order compound file; set-up: species or system human; details: PK and DDI

Row | SMILES | oral clearance (CLPO) ([1]; SDD 300 mg single dose without ritonavir, Dataset #1, geometric mean) | renal clearance in the presence and absence of ritonavir [1] | renal clearance in the presence and absence of ritonavir ([1]; listed as nirmatrelvir) | deviation of predicted AUC and Cmax from the observed [2] | period remained in solution without precipitating [3] | in vitro fm,CYP3A4 (CYP3A4; formation rate of the major metabolites with selective inhibitors) | main metabolizing enzyme (CYP3A4; in vitro reaction phenotyping data) | half-life [4] | Papp (MDCK-LE) | Papp (Caco-2) | predicted vs observed values, ritonavir model [5]
1 | CC(C)(C)[C@H](NC(=O)C(F)(F)F)C(=O)N1C[C@H]2[C@@H]([C@H]1C(=O)N[C@H](C#N)C[C@@H]1CCNC1=O)C2(C)C [Nirmatrelvir, nirmatrelvir] | 28.36 L/h | did not change | remains the same | ≤ 20% | 24 h | 0.99 | mainly metabolized by CYP3A4; also recorded: predominantly metabolized by CYP3A4 | 2 h | 1.76 10^–6 cm/s | 0.66–1.19 10^–6 cm/s | –
2 | CC(C)c1nc(CN(C)C(=O)N[C@H](C(=O)N[C@@H](Cc2ccccc2)C[C@H](O)[C@H](Cc2ccccc2)NC(=O)OCc2cncs2)C(C)C)cs1 [Ritonavir, ritonavir] | – | – | – | – | – | – | – | – | – | – | within twofold
